# Reference: US20230310428A1, “EGFR INHIBITOR AND PREPARATION METHOD AND USE THEREOF” (HONGYUN BIOTECH CO., LTD., priority 2020, published 2023)
# pIC50: −log10 of the molar value. Like-named read-outs stand apart in the source and are kept apart here.
# Assays:
# Experiment in all cases: Growth inhibitory activity of compounds on BaF3 cell lines stably transfected with kinase (MTS, 48 h)
# Format in all cases: cell-based
# [1] = target: T1, various mutants of kinase EGFR (BaF3 cell lines stably transfected with kinase) (Homo sapiens, UniProt P00533)
# T1 construct: other: BaF3 cells stably transfected with EGFR Δ19Del; MTS, 48 h; other: BaF3 cell line stably transfected with EGFR Δ19Del
# Procedure: (§1) The activity of compounds against various mutants of kinase EGFR was evaluated by their effect of inhibiting growth of BaF3 cell lines stably transfected with kinase. The specific test method was given as follows:
# (§2) 1) Culture medium: DMEM (Dulbecco’s modified eagle medium) or RPMI 1640 (containing 10% fetal bovine serum, 100 µg/mL ampicillin, 100 µg/mL streptomycin).
# (§3) 2) Reagent: MTS reaction solution (containing 2 mg/mL of MTS [3-(4,5-dimethylthiazol-2-yl)-5-(3-carboxymethoxyphenyl)-2-(4-sulfophenyl)-2H-tetrazoliu m, inner Salt]; 100 µg/mL of PES ([…])).
# (§4) 3) Compound test: cells were incubated into a 96-well culture plate, the volume of cytosol was 90 µL, and then 10 µL of the compound at each gradient concentration was added. That is, the highest concentration was 10 µM, which was diluted stepwise by ⅓, and 8 concentration points were set in total; 0.1% DMSO (dimethyl sulfoxide) was contained in the system. The cell plate with uniformly mixed compound was cultured in a cell culture incubator (37° C.; 5% CO2) for 48 h, then 20 µL of MTS reaction solution was added, uniformly mixed and incubated in the cell culture incubator (37° C.; 5% CO2) for 1-4 h. OD values at 490 nm were measured by a microplate reader (VARIOSKAN FLASH, Thermo). Two parallels were set in each group of experiments, with 0.1% (a final concentration) DMSO as a negative control, and a culture medium without cells and compounds as a blank control. The cell growth inhibition rate was calculated by the following formula: […]
# (§5) 4) IC50 calculation: The semi-inhibitory concentration of the compounds acting on cells was calculated using GradPad Prism 5 software according to the measured cell growth inhibition rate.
# [2] = target: T2, various mutants of kinase EGFR (BaF3 cell lines stably transfected with kinase) (Homo sapiens, UniProt P00533, C797S/L858R/T790M)
# T2 construct: expressed in transfected cells; host or cells: BaF3
# Procedure: as §1, §2, §3, §4, §5
# [3] = target: T3, various mutants of kinase EGFR (BaF3 cell lines stably transfected with kinase) (Homo sapiens, UniProt P00533, L858R)
# T3 construct: expressed in transfected cells; host or cells: BaF3
# Procedure: as §1, §2, §3, §4, §5
# [4] = target: T4, various mutants of kinase EGFR (BaF3 cell lines stably transfected with kinase) (Homo sapiens, UniProt P00533, L858R/T790M)
# T4 construct: expressed in transfected cells; host or cells: BaF3
# Procedure: as §1, §2, §3, §4, §5
# [5] = target: T5, various mutants of kinase EGFR (BaF3 cell lines stably transfected with kinase) (Homo sapiens, UniProt P00533, T790M/C797S, form not given)
# T5 construct: other: BaF3 cells stably transfected with EGFR Δ19Del/T790M/C797S; MTS, 48; other: BaF3 cell line stably transfected with EGFR Δ19Del/T790M/C7
# Procedure: as §1, §2, §3, §4, §5
# [6] = target: T6, various mutants of kinase EGFR (BaF3 cell lines stably transfected with kinase) (Homo sapiens, UniProt P00533, T790M, form not given)
# T6 construct: other: BaF3 cells stably transfected with EGFR Δ19Del/T790M; MTS, 48 h; other: BaF3 cell line stably transfected with EGFR Δ19Del/T790M; MTS, 48
# Procedure: as §1, §2, §3, §4, §5
# [7] = BaF3 cells stably transfected with EGFR Δ19Del, read-out: IC50, growth inhibition, Δ19Del
# [8] = BaF3 cells stably transfected with EGFR L858R/T790M/C797S, read-out: IC50, growth inhibition, L858R/T790M/C797S
# [9] = BaF3 cells stably transfected with EGFR L858R, read-out: IC50, growth inhibition, L858R
# [10] = BaF3 cells stably transfected with EGFR L858R/T790M, read-out: IC50, growth inhibition, L858R/T790M
# [11] = BaF3 cells stably transfected with EGFR Δ19Del/T790M/C797S, read-out: IC50, growth inhibition, Δ19Del/T790M/C797S
# [12] = BaF3 cells stably transfected with EGFR Δ19Del/T790M, read-out: IC50, growth inhibition, Δ19Del/T790M
# [13] = BaF3 cell line stably transfected with EGFR Δ19Del, read-out: Δ19Del growth inhibitory activity IC50
# [14] = BaF3 cell line stably transfected with EGFR L858R/T790M/C797S, read-out: L858R/T790M/ C797S growth inhibitory activity IC50
# [15] = BaF3 cell line stably transfected with EGFR L858R, read-out: L858R growth inhibitory activity IC50
# [16] = BaF3 cell line stably transfected with EGFR L858R/T790M, read-out: L858R/ T790M growth inhibitory activity IC50
# [17] = BaF3 cell line stably transfected with EGFR Δ19Del/T790M/C797S, read-out: Δ19Del/T790M/ C797S growth inhibitory activity IC50
# [18] = BaF3 cell line stably transfected with EGFR Δ19Del/T790M, read-out: Δ19Del/ T790M growth inhibitory activity IC50
# T4 sequence (P00533 25-1210 T790M/L858R): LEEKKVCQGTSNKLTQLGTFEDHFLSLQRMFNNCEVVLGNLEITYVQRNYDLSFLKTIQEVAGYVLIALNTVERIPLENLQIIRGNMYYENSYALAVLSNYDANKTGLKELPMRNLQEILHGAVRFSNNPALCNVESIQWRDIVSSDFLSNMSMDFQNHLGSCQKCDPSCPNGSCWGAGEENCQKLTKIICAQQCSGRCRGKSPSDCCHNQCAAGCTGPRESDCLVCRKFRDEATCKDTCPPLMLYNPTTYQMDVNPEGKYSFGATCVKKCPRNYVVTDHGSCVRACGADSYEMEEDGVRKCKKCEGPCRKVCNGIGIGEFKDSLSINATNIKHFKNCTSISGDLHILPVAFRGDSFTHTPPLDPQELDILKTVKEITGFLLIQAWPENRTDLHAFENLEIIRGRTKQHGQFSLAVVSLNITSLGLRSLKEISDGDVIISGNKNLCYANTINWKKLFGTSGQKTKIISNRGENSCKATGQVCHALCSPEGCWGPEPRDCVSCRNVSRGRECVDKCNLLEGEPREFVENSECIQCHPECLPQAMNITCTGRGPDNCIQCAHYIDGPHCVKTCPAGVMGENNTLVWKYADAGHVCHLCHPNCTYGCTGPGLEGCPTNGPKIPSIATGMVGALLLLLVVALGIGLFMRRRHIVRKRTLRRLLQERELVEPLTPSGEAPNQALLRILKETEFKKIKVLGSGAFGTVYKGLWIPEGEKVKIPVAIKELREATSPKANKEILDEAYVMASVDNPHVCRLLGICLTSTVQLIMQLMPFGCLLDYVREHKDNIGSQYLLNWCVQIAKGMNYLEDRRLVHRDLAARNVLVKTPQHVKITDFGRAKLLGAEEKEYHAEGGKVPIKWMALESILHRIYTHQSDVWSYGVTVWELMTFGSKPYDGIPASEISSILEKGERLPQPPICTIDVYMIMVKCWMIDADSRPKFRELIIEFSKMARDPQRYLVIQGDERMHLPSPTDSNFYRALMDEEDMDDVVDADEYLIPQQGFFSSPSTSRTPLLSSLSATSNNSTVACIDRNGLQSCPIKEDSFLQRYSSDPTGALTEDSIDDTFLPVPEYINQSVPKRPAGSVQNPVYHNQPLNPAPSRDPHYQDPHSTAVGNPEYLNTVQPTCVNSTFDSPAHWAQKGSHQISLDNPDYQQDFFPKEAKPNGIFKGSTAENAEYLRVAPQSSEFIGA
# T6 sequence (P00533 with tags, fused parts or gaps DEL746-750/T790M, form open): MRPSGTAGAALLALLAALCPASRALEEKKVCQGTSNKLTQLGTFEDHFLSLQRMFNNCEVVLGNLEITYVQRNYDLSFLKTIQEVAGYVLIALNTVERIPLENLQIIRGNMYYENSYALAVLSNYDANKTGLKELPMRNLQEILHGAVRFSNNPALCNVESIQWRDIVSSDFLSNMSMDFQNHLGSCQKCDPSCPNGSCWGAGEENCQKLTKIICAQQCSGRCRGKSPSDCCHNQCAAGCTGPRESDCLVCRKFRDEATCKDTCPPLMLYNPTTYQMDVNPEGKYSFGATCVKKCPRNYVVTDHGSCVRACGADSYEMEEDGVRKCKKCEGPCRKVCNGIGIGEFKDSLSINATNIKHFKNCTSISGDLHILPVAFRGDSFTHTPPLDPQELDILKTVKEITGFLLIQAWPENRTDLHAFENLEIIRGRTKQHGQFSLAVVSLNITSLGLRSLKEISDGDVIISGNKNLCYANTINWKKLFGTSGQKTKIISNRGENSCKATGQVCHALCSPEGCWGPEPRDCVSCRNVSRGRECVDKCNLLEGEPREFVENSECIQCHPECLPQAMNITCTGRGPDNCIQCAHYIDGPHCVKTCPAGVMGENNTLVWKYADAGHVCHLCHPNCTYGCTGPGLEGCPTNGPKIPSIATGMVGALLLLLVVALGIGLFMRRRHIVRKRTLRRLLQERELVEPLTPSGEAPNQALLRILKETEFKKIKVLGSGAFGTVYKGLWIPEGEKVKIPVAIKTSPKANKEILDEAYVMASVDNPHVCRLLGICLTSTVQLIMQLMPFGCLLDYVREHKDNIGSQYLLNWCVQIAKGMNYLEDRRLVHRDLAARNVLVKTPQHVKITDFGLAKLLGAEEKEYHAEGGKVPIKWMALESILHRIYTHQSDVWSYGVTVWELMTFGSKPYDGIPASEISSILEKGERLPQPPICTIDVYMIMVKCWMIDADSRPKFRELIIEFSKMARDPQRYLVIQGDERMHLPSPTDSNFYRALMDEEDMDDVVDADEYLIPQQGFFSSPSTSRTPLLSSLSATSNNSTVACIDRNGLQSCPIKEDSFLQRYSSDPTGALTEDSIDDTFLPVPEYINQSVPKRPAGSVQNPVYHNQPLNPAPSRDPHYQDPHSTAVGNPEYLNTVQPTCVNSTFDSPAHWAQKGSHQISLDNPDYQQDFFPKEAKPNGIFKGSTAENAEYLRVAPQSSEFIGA
# T3 sequence (P00533 25-1210 L858R): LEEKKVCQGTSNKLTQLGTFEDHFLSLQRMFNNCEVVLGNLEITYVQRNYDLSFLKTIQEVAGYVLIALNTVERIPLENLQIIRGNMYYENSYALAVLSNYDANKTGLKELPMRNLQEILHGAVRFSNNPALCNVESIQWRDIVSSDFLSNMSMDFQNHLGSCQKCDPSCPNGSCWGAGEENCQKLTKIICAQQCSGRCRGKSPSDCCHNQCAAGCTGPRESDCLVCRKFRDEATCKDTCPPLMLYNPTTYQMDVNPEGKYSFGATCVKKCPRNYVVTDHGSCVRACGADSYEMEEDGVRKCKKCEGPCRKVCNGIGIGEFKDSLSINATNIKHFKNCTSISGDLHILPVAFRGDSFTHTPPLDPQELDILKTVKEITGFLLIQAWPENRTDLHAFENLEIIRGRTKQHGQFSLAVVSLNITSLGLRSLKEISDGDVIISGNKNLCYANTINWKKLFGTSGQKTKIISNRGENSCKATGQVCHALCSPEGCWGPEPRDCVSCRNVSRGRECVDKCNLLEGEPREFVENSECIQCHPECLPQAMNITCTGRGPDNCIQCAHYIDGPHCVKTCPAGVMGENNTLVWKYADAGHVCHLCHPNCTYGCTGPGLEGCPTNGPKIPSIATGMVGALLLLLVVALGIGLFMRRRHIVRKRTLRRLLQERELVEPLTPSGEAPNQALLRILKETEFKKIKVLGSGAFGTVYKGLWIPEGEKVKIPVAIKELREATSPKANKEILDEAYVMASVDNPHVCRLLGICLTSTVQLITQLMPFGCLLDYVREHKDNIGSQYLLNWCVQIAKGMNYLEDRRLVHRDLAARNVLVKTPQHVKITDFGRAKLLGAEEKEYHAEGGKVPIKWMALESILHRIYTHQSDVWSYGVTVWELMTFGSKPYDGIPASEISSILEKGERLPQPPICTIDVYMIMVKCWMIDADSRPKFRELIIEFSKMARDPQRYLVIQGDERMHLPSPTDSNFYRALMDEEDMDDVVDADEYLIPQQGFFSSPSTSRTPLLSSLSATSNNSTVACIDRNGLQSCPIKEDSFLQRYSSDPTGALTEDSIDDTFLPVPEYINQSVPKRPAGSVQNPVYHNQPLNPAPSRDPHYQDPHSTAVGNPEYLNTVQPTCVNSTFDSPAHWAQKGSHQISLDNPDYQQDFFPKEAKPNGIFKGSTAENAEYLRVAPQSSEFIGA
# T2 sequence (P00533 25-1210 T790M/C797S/L858R): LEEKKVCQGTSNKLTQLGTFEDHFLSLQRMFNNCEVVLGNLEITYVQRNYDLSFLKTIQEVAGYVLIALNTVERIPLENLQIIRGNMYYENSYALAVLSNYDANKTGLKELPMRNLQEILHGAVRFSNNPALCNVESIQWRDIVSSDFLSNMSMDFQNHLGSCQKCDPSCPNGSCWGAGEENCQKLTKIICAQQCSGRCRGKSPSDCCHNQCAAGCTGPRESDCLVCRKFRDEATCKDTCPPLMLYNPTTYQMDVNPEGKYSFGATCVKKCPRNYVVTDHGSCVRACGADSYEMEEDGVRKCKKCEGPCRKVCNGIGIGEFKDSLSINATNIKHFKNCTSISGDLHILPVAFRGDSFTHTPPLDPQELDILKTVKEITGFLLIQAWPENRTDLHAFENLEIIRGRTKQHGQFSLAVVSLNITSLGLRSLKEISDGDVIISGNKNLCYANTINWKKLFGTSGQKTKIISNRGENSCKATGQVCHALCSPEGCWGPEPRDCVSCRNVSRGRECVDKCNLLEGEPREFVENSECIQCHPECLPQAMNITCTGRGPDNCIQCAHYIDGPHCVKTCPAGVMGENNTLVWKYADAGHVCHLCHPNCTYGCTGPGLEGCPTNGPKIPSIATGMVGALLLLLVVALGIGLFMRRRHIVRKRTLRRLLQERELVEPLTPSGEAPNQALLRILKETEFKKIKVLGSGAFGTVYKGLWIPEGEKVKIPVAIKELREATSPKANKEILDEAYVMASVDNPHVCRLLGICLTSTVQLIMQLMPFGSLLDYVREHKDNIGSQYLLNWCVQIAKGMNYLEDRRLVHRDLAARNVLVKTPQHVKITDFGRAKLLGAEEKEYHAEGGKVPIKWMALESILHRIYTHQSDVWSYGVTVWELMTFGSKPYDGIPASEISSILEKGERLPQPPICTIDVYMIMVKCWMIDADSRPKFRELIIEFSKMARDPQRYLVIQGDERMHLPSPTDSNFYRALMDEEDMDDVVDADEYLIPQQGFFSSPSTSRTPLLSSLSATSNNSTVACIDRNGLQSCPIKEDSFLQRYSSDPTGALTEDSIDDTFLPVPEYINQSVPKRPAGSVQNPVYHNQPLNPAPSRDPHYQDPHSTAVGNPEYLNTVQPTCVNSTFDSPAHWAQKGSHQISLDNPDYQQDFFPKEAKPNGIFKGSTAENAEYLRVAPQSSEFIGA
Compound,"pIC50 [1, 7]","pIC50 [2, 8]","pIC50 [3, 9]","pIC50 [4, 10]","pIC50 [5, 11]","pIC50 [6, 12]","pIC50 [1, 13]","pIC50 [2, 14]","pIC50 [3, 15]","pIC50 [4, 16]","pIC50 [5, 17]","pIC50 [6, 18]"
CCc1cc(Nc2ncc(Cl)c(Nc3ccc4nccnc4c3N(C)S(=O)(=O)CC)n2)c(OC(F)(F)F)cc1N1CCC(N2CCN(C)CC2)CC1 [Compound I-116],6.30 to 7.30,6.30 to 7.30,6.30 to 7.30,6.30 to 7.30,≥ 7.30,6.30 to 7.30,–,–,–,–,–,–
COc1cc(N2CCC(N3CCN(C)CC3)CC2)c(C)cc1Nc1ncc(Br)c(Nc2ccc3nccnc3c2N(C)S(=O)(=O)C(C)C)n1 [Compound I-134],6.30 to 7.30,≥ 7.30,6.30 to 7.30,≥ 7.30,≥ 7.30,≥ 7.30,–,–,–,–,–,–
CC(C)n1cc(Nc2ncc(Br)c(Nc3ccc4nccnc4c3N(C)S(C)(=O)=O)n2)cn1 [Compound I-388],–,–,–,–,–,–,6.30 to 7.30,≥ 7.30,6.30 to 7.30,≥ 7.30,≥ 7.30,6.30 to 7.30
C=Cc1cc(Nc2ncc(Br)c(Nc3ccc4nccnc4c3N(C)S(=O)(=O)C(F)(F)F)n2)c(OC(F)(F)F)cc1N1CCC(N2CCN(C)CC2)CC1 [Compound I-258],5.60 to 6.30,6.30 to 7.30,5.60 to 6.30,6.30 to 7.30,≥ 7.30,6.30 to 7.30,–,–,–,–,–,–
CCc1cc(Nc2ncc(F)c(Nc3ccc4nccnc4c3N(C)S(=O)(=O)C3CC3)n2)c(OC)cc1N1CCC(N(C)C)CC1 [Compound I-252],≥ 7.30,6.30 to 7.30,≥ 7.30,≥ 7.30,≥ 7.30,6.30 to 7.30,–,–,–,–,–,–
CCc1cc(Nc2nc(Nc3ccc4nccnc4c3N(C)S(C)(=O)=O)c3[nH]ccc3n2)c(OC)cc1N1CCC(N(C)C)C1 (stereo not drawn) [II-1-36],–,–,–,–,–,–,5.60 to 6.30,5.60 to 6.30,5.60 to 6.30,5.60 to 6.30,5.60 to 6.30,5.60 to 6.30
CCc1cc(Nc2ncc(Cl)c(Nc3ccc4nccnc4c3N(C)S(=O)(=O)C(C)C)n2)c(OC)cc1N1CCC(N(C)C)CC1 [Compound I-142],≥ 7.30,≥ 7.30,≥ 7.30,≥ 7.30,≥ 7.30,≥ 7.30,–,–,–,–,–,–
CN1CCN(C2CCN(c3ccc(Nc4ncc(C(F)(F)F)c(Nc5ccc6nccnc6c5N(C)S(C)(=O)=O)n4)c(OC(F)(F)F)c3)CC2)CC1 [Compound I-200],6.30 to 7.30,6.30 to 7.30,6.30 to 7.30,6.30 to 7.30,6.30 to 7.30,6.30 to 7.30,–,–,–,–,–,–
COc1cc(N2CCC(N3CCN(C)CC3)CC2)c(C)cc1Nc1nc(Nc2ccc3nccnc3c2N(C)S(C)(=O)=O)c2sccc2n1 [II-1-2],–,–,–,–,–,–,6.30 to 7.30,6.30 to 7.30,6.30 to 7.30,6.30 to 7.30,≥ 7.30,6.30 to 7.30
COc1cc(N2CCN(C)CC2)c(C)cc1Nc1nc(Nc2ccc3nccnc3c2N(C)S(C)(=O)=O)c2cc[nH]c2n1 [II-2-12],–,–,–,–,–,–,6.30 to 7.30,≥ 7.30,6.30 to 7.30,≥ 7.30,≥ 7.30,≥ 7.30
CCN(c1c(Nc2nc(Nc3cc(N4CCC(O)CC4)ccc3OC)ncc2Br)ccc2nccnc12)S(C)(=O)=O [Compound I-378],–,–,–,–,–,–,6.30 to 7.30,≥ 7.30,6.30 to 7.30,≥ 7.30,≥ 7.30,≥ 7.30
CN(c1c(Nc2nc(Nc3ccn(C)n3)ncc2Br)ccc2nccnc12)S(C)(=O)=O [Compound I-66],6.30 to 7.30,6.30 to 7.30,6.30 to 7.30,≥ 7.30,6.30 to 7.30,6.30 to 7.30,–,–,–,–,–,–
CCc1cc(Nc2nc(Nc3ccc4nccnc4c3N(C)S(C)(=O)=O)c3occc3n2)c(OC)cc1N1CCC(N2CCN(C)CC2)CC1 [II-1-26],–,–,–,–,–,–,6.30 to 7.30,≥ 7.30,6.30 to 7.30,≥ 7.30,≥ 7.30,≥ 7.30
CN1CCN(C2CCN(c3c(F)cc(Nc4ncc(Br)c(Nc5ccc6nccnc6c5NS(C)(=O)=O)n4)cc3F)CC2)CC1 [Compound I-360],–,–,–,–,–,–,6.30 to 7.30,6.30 to 7.30,≥ 7.30,≥ 7.30,6.30 to 7.30,6.30 to 7.30
COc1cc(N2CCC(N3CCN(C)CC3)CC2)c(C)cc1Nc1ncc(C)c(Nc2ccc3nccnc3c2N(C)S(C)(=O)=O)n1 [Compound I-276],≥ 7.30,≥ 7.30,≥ 7.30,≥ 7.30,≥ 7.30,≥ 7.30,–,–,–,–,–,–

# Further lines, results first:
"pIC50 [1, 7]","pIC50 [2, 8]","pIC50 [3, 9]","pIC50 [4, 10]","pIC50 [5, 11]","pIC50 [6, 12]","pIC50 [1, 13]","pIC50 [2, 14]","pIC50 [3, 15]","pIC50 [4, 16]","pIC50 [5, 17]","pIC50 [6, 18]",Compound
≥ 7.30,≥ 7.30,≥ 7.30,≥ 7.30,≥ 7.30,≥ 7.30,–,–,–,–,–,–,CCc1cc(Nc2ncc(OC)c(Nc3ccc4nccnc4c3N(C)S(C)(=O)=O)n2)c(OC)cc1N1CCN(C)CC1 [Compound I-283]
≥ 7.30,≥ 7.30,≥ 7.30,≥ 7.30,≥ 7.30,≥ 7.30,–,–,–,–,–,–,CCc1cc(Nc2ncc(Cl)c(Nc3ccc4nccnc4c3N(CC)S(C)(=O)=O)n2)c(OC)cc1N1CCC(N2CCN(C)CC2)CC1 [Compound I-110]
≥ 7.30,≥ 7.30,≥ 7.30,≥ 7.30,≥ 7.30,≥ 7.30,–,–,–,–,–,–,CCc1cc(Nc2ncc(Cl)c(Nc3ccc4nccnc4c3N(C3CC3)S(C)(=O)=O)n2)c(OC)cc1N1CCC(N(C)C)C1 (stereo not drawn) [Compound I-163]
≥ 7.30,≥ 7.30,≥ 7.30,≥ 7.30,≥ 7.30,≥ 7.30,–,–,–,–,–,–,CCc1cc(Nc2ncc(Cl)c(Nc3ccc4nccnc4c3N(C)S(=O)(=O)C3CC3)n2)c(OC)cc1N1CCC(N2CCN(C)CC2)CC1 [Compound I-120]
≥ 7.30,≥ 7.30,≥ 7.30,≥ 7.30,≥ 7.30,≥ 7.30,–,–,–,–,–,–,CCc1cc(Nc2ncc(Cl)c(Nc3ccc4nccnc4c3N(C)S(=O)(=O)CC)n2)c(OC)cc1N1CCC(N2CCN(C)CC2)CC1 [Compound I-115]
6.30 to 7.30,≥ 7.30,6.30 to 7.30,≥ 7.30,≥ 7.30,≥ 7.30,–,–,–,–,–,–,CCc1cc(Nc2ncc(Br)c(Nc3ccc4nccnc4c3N(C3CC3)S(C)(=O)=O)n2)c(OC)cc1N1CCC(N(C)C)C1 (stereo not drawn) [Compound I-158]
≥ 7.30,≥ 7.30,≥ 7.30,≥ 7.30,≥ 7.30,≥ 7.30,–,–,–,–,–,–,CCc1cc(Nc2ncc(Cl)c(Nc3ccc4nccnc4c3N(C3CC3)S(C)(=O)=O)n2)c(OC)cc1N1CCN(C)CC1 [Compound I-245]
6.30 to 7.30,6.30 to 7.30,6.30 to 7.30,6.30 to 7.30,≥ 7.30,≥ 7.30,–,–,–,–,–,–,CCc1cc(Nc2ncc(Cl)c(Nc3ccc4nccnc4c3N(C)S(=O)(=O)C(C)C)n2)c(OC)cc1N1CCN(C)CC1 [Compound I-255]
